Results from publication doi:10.1101/2021.10.07.463234v2 (biorxiv, 2021).
Where a name gives a salt, the structure may show the parent alone. Bridge positions count the residues as written; N and C are the ends. Peptide text beside a SMILES is read from it.

Target: SARS-CoV-2 Mac1 (Severe acute respiratory syndrome coronavirus 2, UniProt P0DTD1)
Assay: biochemical
Conditions: 100 µM; inhibitor

`CCC[C@H](NC(=O)[C@@H]1[C@H]2CCC[C@H]2CN1C(=O)[C@@H](NC(=O)[C@@H](NC(=O)c1cnccn1)C1CCCCC1)C(C)(C)C)C(=O)C(=O)NC1CC1` [Telaprevir (VX-950)] and `CC[C@H]1OC(=O)C[C@@H](O)[C@H](C)[C@@H](O[C@@H]2O[C@H](C)[C@@H](O)[C@H](N(C)C)[C@H]2O)[C@@H](CCN2C[C@H](C)C[C@H](C)C2)C[C@@H](C)C(=O)/C=C/C(C)=C/[C@@H]1CO[C@@H]1O[C@H](C)[C@@H](O)[C@@H](OC)[C@H]1OC` [Tilmicosin phosphate] are the same in “%inhibition” value: 0% for the first, 0% for the second.

Compared with `COc1cc2nc(N3CCN(C(=O)C4CCCO4)CC3)nc(N)c2cc1OC` (stereo not drawn) [Terazosin HCl Dihydrate], `CN1c2ccccc2C(NCCCCCCC(=O)O)c2ccc(Cl)cc2S1(=O)=O` (stereo not drawn) [Tianeptine sodium] is lower in “%inhibition” value: 6.293% for the first, 0% for the second.

Compared with `COc1cc2nc(N3CCN(C(=O)C4CCCO4)CC3)nc(N)c2cc1OC` (stereo not drawn) [Terazosin HCl], `CN1c2ccccc2C(NCCCCCCC(=O)O)c2ccc(Cl)cc2S1(=O)=O` (stereo not drawn) [Tianeptine] is higher in “%inhibition” value: 2.055% for the first, 12.39% for the second.

Going from `CN(C/C=C/C#CC(C)(C)C)Cc1cccc2ccccc12` [Terbinafine HCl] to `O=c1sn(-c2cccc3ccccc23)c(=O)n1Cc1ccccc1` [Tideglusib], the “%inhibition” value rises from 13.33% to 42.74%.

Going from `CN(C/C=C/C#CC(C)(C)C)Cc1cccc2ccccc12` [Terbinafine] to `CC[C@H]1OC(=O)C[C@@H](O)[C@H](C)[C@@H](O[C@@H]2O[C@H](C)[C@@H](O)[C@H](N(C)C)[C@H]2O)[C@@H](CCN2C[C@H](C)C[C@H](C)C2)C[C@@H](C)C(=O)/C=C/C(C)=C/[C@@H]1CO[C@@H]1O[C@H](C)[C@@H](O)[C@@H](OC)[C@H]1OC` [Tilmicosin], the “%inhibition” value falls from 49.96% to 23.11%.

For `NC[C@H]1O[C@H](O[C@H]2[C@H](O)[C@@H](O[C@H]3O[C@H](CO)[C@@H](O)[C@H](N)[C@H]3O)[C@H](N)C[C@@H]2N)[C@H](N)C[C@@H]1O` [Tobramycin sulfate], the “%inhibition” value was 7.872%.
With `NC[C@H]1O[C@H](O[C@H]2[C@H](O)[C@@H](O[C@H]3O[C@H](CO)[C@@H](O)[C@H](N)[C@H]3O)[C@H](N)C[C@@H]2N)[C@H](N)C[C@@H]1O` [Tobramycin] the “%inhibition” value was 0%.

Same assay, conditions: read-out: %inhibition

`Cn1nnc(-c2ccc(-c3ccc(N4C[C@H](COP(=O)(O)O)OC4=O)cc3F)cn2)n1` [Tedizolid Phosphate] and `Cn1nnc(-c2ccc(-c3ccc(N4C[C@H](CO)OC4=O)cc3F)cn2)n1` [Tedizolid] are the same in inhibition at 100 µM: 0% for the first, 0% for the second.

`O=c1[nH]c(=O)n(C2CCCO2)cc1F` (stereo not drawn) [Tegafur (FT-207, NSC 148958)] and `Cc1cn([C@@H]2C[C@@H](O)[C@H](CO)O2)c(=O)[nH]c1=O` [Telbivudine] are the same in inhibition at 100 µM: 0% for the first, 0% for the second.

Compared with `CCCCCNC(=N)N/N=C/c1c[nH]c2ccc(OC)cc12` [Tegaserod Maleate], `CCCCNc1ccc(C(=O)OCCN(C)C)cc1` [Tetracaine HCl] is higher in inhibition at 100 µM: 1.73% for the first, 9.17% for the second.

Going from `CCCc1nc2c(C)cc(-c3nc4ccccc4n3C)cc2n1Cc1ccc(-c2ccccc2C(=O)O)cc1` [Telmisartan] to `CCOC(=O)[C@@H](N)Cc1ccc(-c2cc(O[C@H](c3ccc(Cl)cc3-n3ccc(C)n3)C(F)(F)F)nc(N)n2)cc1` [Telotristat Etiprate (LX 1606 Hippurate)], the inhibition at 100 µM falls from 27.9% to 0%.

Going from `CCOC(=O)[C@H](CCc1ccccc1)N[C@H]1CS[C@H](c2cccs2)CN(CC(=O)O)C1=O` [Temocapril HCl] to `CC(C(=O)O)c1ccc(C(=O)c2ccccc2)s1` (stereo not drawn) [Tiaprofenic acid], the inhibition at 100 µM rises from 0% to 26.3%.

Going from `Cn1nnc2c(C(N)=O)ncn2c1=O` [Temozolomide] to `C[C@H](Cn1cnc2c(N)ncnc21)OCP(=O)(O)O` [Tenofovir], the inhibition at 100 µM falls from 34.1% to 0%.

First: CO[C@H]1C[C@@H]2CC[C@@H](C)[C@@](O)(O2)C(=O)C(=O)N2CCCC[C@H]2C(=O)O[C@H]([C@H](C)C[C@@H]2CC[C@@H](OC(=O)C(C)(CO)CO)[C@H](OC)C2)CC(=O)[C@H](C)/C=C(\C)[C@@H](O)[C@@H](OC)C(=O)[C@H](C)C[C@H](C)/C=C/C=C/C=C/1C [Temsirolimus (CCI-779, NSC 683864)]
Second: CN(C)c1cc(NC(=O)CNC(C)(C)C)c(O)c2c1C[C@H]1C[C@H]3[C@H](N(C)C)C(O)=C(C(N)=O)C(=O)[C@@]3(O)C(O)=C1C2=O [Tigecycline]
The inhibition at 100 µM of the first is higher: 14.6% for the first, 0% for the second.

Going from `Cc1cc(N2CCN([C@@H]3CN[C@H](C(=O)N4CCSC4)C3)CC2)n(-c2ccccc2)n1` [Teneligliptin hydrobromide] to `c1ccc(C2CN3CCSC3=N2)cc1` (stereo not drawn) [Tetramisole HCl], the inhibition at 100 µM falls from 6.56% to 0%.

Compared with `COc1cc([C@@H]2c3cc4c(cc3[C@@H](O[C@@H]3O[C@@H]5CO[C@@H](c6cccs6)O[C@H]5[C@H](O)[C@H]3O)[C@H]3COC(=O)[C@H]23)OCO4)cc(OC)c1O` [Teniposide], `COc1cc2nccc(Oc3ccc(NC(=O)Nc4cc(C)on4)c(Cl)c3)c2cc1OC` [Tivozanib (AV-951)] is lower in inhibition at 100 µM: 12.8% for the first, 9.18% for the second.

Compared with `CC(C)OC(=O)[C@H](C)N[P@](=O)(CO[C@H](C)Cn1cnc2c(N)ncnc21)Oc1ccccc1` [Tenofovir Alafenamide (GS-7340)], `CC(C)OC(=O)OCOP(=O)(CO[C@H](C)Cn1cnc2c(N)ncnc21)OCOC(=O)OC(C)C` [Tenofovir Disoproxil Fumarate] is lower in inhibition at 100 µM: 10.7% for the first, 0% for the second.

Going from `CN1C(C(=O)Nc2ccccn2)=C(O)c2sccc2S1(=O)=O` [Tenoxicam] to `Clc1ccccc1CN1CCc2sccc2C1` [Ticlopidine HCl], the inhibition at 100 µM rises from 0% to 0.00536%.

Compared with `CN1CCC(COc2cnc(-c3cccc(Cn4nc(-c5cccc(C#N)c5)ccc4=O)c3)nc2)CC1` [Tepotinib (EMD 1214063)], `CC(C)(C)c1ccc(C(O)CCCN2CCC(C(O)(c3ccccc3)c3ccccc3)CC2)cc1` (stereo not drawn) [Terfenadine] is higher in inhibition at 100 µM: 0% for the first, 11% for the second.

Going from `CC(=O)CC/C=C(\C)CC/C=C(\C)CC/C=C(\C)CCC=C(C)C` [Teprenone] to `CCCCCCC(=O)O[C@H]1CC[C@H]2[C@@H]3CCC4=CC(=O)CC[C@]4(C)[C@H]3CC[C@]12C` [Testosterone Enanthate], the inhibition at 100 µM falls from 30.7% to 0%.

Going from `CC(C)(C)NCC(O)c1cc(O)cc(O)c1` (stereo not drawn) [Terbutaline Sulfate] to `CC(C)(C)NC[C@H](O)COc1nsnc1N1CCOCC1` [Timolol Maleate], the inhibition at 100 µM rises from 0% to 11.9%.

First: C/C(O)=C(\C#N)C(=O)Nc1ccc(C(F)(F)F)cc1 [Teriflunomide]
Second: CS(=O)(=O)c1ccc([C@@H](O)[C@@H](CO)NC(=O)C(Cl)Cl)cc1 [Thiamphenicol]
The inhibition at 100 µM of the first is lower: 12.5% for the first, 13.4% for the second.

Going from `NCCCC[C@H](NC(=O)[C@@H]1CCCN1C(=O)[C@@H]1CSSC[C@H](NC(=O)CNC(=O)CNC(=O)CN)C(=O)N[C@@H](Cc2ccc(O)cc2)C(=O)N[C@@H](Cc2ccccc2)C(=O)N[C@@H](CCC(N)=O)C(=O)N[C@@H](CC(N)=O)C(=O)N1)C(=O)NCC(N)=O` [Terlipressin Acetate] (H-GGGCYFQNCPKG-NH2; disulfide 4-9) to `CCCCS(=O)(=O)N[C@@H](Cc1ccc(OCCCCC2CCNCC2)cc1)C(=O)O` [Tirofiban Hydrochloride], the inhibition at 100 µM rises from 0% to 9.42%.

Compared with `CC1(O)CCC(C(C)(C)O)CC1` (stereo not drawn) [Terpin hydrate], `CN(C)[C@@H]1C(=O)C(C(N)=O)=C(O)[C@@]2(O)C(=O)C3=C(O)c4c(O)cccc4[C@@](C)(O)[C@H]3C[C@@H]12` [Tetracycline HCl] is higher in inhibition at 100 µM: 0% for the first, 22.7% for the second.

Going from `COc1cc2c(cc1OC)[C@H]1CC(=O)[C@H](CC(C)C)CN1CC2` [Tetrabenazine (Xenazine)] to `N=C1CCCN1Cc1[nH]c(=O)[nH]c(=O)c1Cl` [Tipiracil hydrochloride], the inhibition at 100 µM falls from 18.7% to 0%.

First: c1ccc2c(c1)CCCC2C1=NCCN1 (stereo not drawn) [Tetrahydrozoline HCl]
Second: c1ccc(CC2=NCCN2)cc1 [Tolazoline HCl]
The inhibition at 100 µM of the first is lower: 0% for the first, 7.01% for the second.

Going from `CC(C)(CO)c1cc2cc(NC(=O)C3(c4ccc5c(c4)OC(F)(F)O5)CC3)c(F)cc2n1C[C@@H](O)CO` [Tezacaftor(VX-661)] to `CCCSc1nc(N[C@@H]2C[C@H]2c2ccc(F)c(F)c2)c2nnn([C@@H]3C[C@H](OCCO)[C@@H](O)[C@H]3O)c2n1` [Ticagrelor], the inhibition at 100 µM falls from 16.1% to 6.12%.

First: O=C1CCC(N2C(=O)c3ccccc3C2=O)C(=O)N1 (stereo not drawn) [Thalidomide]
Second: O=C1NC(=O)[C@@H](c2cn3c4c(cccc24)CCC3)[C@@H]1c1c[nH]c2ccccc12 [Tivantinib (ARQ 197)]
The inhibition at 100 µM of the first is higher: 14% for the first, 1.02% for the second.

Compared with `c1ccc2[nH]c(-c3cscn3)nc2c1` [Thiabendazole], `Nc1nc2[nH]cnc2c(=S)[nH]1` [Thioguanine] is lower in inhibition at 100 µM: 21.5% for the first, 18.9% for the second.

`Cc1ncc(C[n+]2csc(CCO)c2C)c(N)n1` [Thiamine HCl (Vitamin B1)] and `CCS(=O)(=O)CCn1c([N+](=O)[O-])cnc1C` [Tinidazole] are the same in inhibition at 100 µM: 0% for the first, 0% for the second.

First: S=P(N1CC1)(N1CC1)N1CC1 [Thiotepa]
Second: Cc1ccsc1C(=CCCN1CCC[C@@H](C(=O)O)C1)c1sccc1C [Tiagabine]
The inhibition at 100 µM of the first is higher: 21.5% for the first, 9.64% for the second.

Compared with `Cc1ccc(C(C)C)c(O)c1` [Thymol], `O=c1oc2cc(O)ccc2s1` [Tioxolone] is higher in inhibition at 100 µM: 0.387% for the first, 23.8% for the second.

First: CC1(C)S[C@@H]2[C@H](NC(=O)[C@H](C(=O)O)c3ccsc3)C(=O)N2[C@H]1C(=O)O [Ticarcillin sodium]
Second: CC(S)C(=O)NCC(=O)O (stereo not drawn) [Tiopronin]
The inhibition at 100 µM of the first is higher: 7.19% for the first, 0% for the second.

Going from `CCNC1(c2cccs2)CCCCC1=O` (stereo not drawn) [Tiletamine Hydrochloride] to `C[N+]1(C)[C@@H]2C[C@@H](OC(=O)C(O)(c3cccs3)c3cccs3)C[C@H]1[C@@H]1O[C@@H]12` [Tiotropium Bromide hydrate], the inhibition at 100 µM rises from 0% to 19.5%.

Going from `Clc1ccc(C(Cn2ccnc2)OCc2ccsc2Cl)c(Cl)c1` (stereo not drawn) [Tioconazole] to `Clc1ccc2nsnc2c1NC1=NCCN1` [Tizanidine HCl], the inhibition at 100 µM falls from 7.13% to 0%.

With `CCc1ccc(Cc2ccc3c(c2)[C@]2(OC3)O[C@H](CO)[C@@H](O)[C@H](O)[C@H]2O)cc1` [Tofogliflozin(CSG 452)] the inhibition at 100 µM was 1.23%.
